Bounds are passed on as bounds.

This test deals with hGPR88 receptor (Homo sapiens, UniProt Q9GZN0). The test is described as follows: hGPR88-HEK cAMP accumulation assay. To be noted: GRP88 agonist activity (EC50), HEK-293 cells expressing human recombinant GPR88, forskolin 200 nM, High/Medium/Low bands. On the technique in general: Cyclic AMP is a second messenger, typically raised through Gs and lowered through Gi signalling.
hGPR88 receptor, sequence (Q9GZN0 whole entry): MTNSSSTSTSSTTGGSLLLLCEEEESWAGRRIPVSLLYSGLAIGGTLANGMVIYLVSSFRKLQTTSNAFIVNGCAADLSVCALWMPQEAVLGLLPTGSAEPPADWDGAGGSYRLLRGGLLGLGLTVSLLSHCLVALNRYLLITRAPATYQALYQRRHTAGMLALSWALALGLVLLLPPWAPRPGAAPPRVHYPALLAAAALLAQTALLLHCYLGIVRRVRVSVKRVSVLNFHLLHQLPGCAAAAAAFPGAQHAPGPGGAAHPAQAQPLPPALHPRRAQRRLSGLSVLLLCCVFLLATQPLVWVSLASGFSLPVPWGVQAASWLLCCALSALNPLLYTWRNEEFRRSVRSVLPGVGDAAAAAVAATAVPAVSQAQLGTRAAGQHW
Experimental: Biological Assay 1: hGPR88-HEK cAMP Accumulation Assay
Cryopreserved vials of HEK-293 cells expressing human recombinant GPR88 receptor are re-suspended in KRH assay buffer and 5 μl of cell solution is suspended in test wells at a seeding density of 2500±500 cells per well using the multidrop to provide a final reaction volume of 10 μl containing 0.5% DMSO. Assay plate is incubated for 30 min at room temperature and the reaction is terminated by addition of 5 μl of each of the cAMP detection reagents of the cAMP Gi kit (Cisbio Bioassays, 62AM9PEJ), diluted in cell lysis buffer, to each well using the multidrop in the following order: first the cAMP-d2 conjugate, then the anti-cAMP cryptate conjugate. […] Raw counts were converted to cAMP concentrations via a standard curve before EC50 and Emax determination. Data is expressed as % decrease in forskolin stimulated cAMP compared to cells treated with vehicle alone in the same buffer and on the same plate.
Turning to `Cc1ccc(-c2ccc(N(CC(C)C)C(=O)C(C)(C)Oc3ccc(F)cc3)cc2)cc1` [Example 21, 2-(4-fluorophenoxy)-N-isobutyl-2-methyl-N-(4′-methyl-[1,1′-biphenyl]-4-yl)-2-methylpropanamide], the EC50 (usually the concentration giving half of the maximal effect) is over 5 µM. Regarding `CCCc1ccc(C23CC(NC(=O)C4CC4c4ccccn4)(C2)C3)cc1` (racemic) [Example 34, (rac-trans)-N-(3-(4-propylphenyl)bicyclo[1.1.1]pentan-1-yl)-2-(pyridin-2-yl)cyclopropane-1-carboxamide], the EC50 was 1 to 5 µM. With `CC(C)Oc1ccc(-c2ccc(NC(=O)C3CC3c3ccccn3)cc2)cn1` (racemic) [Example 109, (rac-trans)-N-(4-(6-isopropoxypyridin-3-yl)phenyl)-2-(pyridin-2-yl) cyclopropane-1-carboxamide], the concentration for a half-maximal effect (EC50) was 1 to 5 µM. Under `COCc1ccc(-c2ccc(NC(=O)C(C)(C)Oc3cccnn3)cc2)cc1` [Example 69, N-(4′-(methoxymethyl)-[1,1′-biphenyl]-4-yl)-2-methyl-2-(pyridazin-3-yloxy)propenamide] stands over 5 µM; under `COCc1ccc(-c2ccc(N(C)C(=O)C3CC3c3ccccn3)cc2)cc1` (racemic) [Example 73, (rac-trans)-N-(4′-(methoxymethyl)-[1,1′-biphenyl]-4-yl)-N-methyl-2-(pyridin-2-yl)cyclopropane-1-carboxamide], over 5 µM.

For the compound `COCc1ccc(-c2ccc(NC(=O)C(C)(C)Oc3ccc(F)cc3)cc2)c(F)c1` [Example 114, N-(2′-fluoro-4′-(methoxymethyl)-[1,1′-biphenyl]-4-yl)-2-(4-fluorophenoxy)-2-methylpropanamide], the EC50 fell in the range of 1 to 5 µM. To `CCOCc1ccc(-c2ccc(NC(=O)C(C)(C)Oc3ccc(F)cc3)cc2)cc1` [Example 86, N-(4′-(ethoxymethyl)-[1,1′-biphenyl]-4-yl)-2-(4-fluorophenoxy)-2-methylpropanamide] belongs under 1 µM; to `CC(c1ccc(-c2ccc(NC(=O)C(C)(C)Oc3ccc(F)cc3)cc2)cc1)N1CCOCC1` (single isomer, unassigned) [Example 122, 2-(4-fluorophenoxy)-2-methyl-N-(4′-(1-morpholinoethyl)-[1,1′-biphenyl]-4-yl)propanamide], 1 to 5 µM; to `COCc1ccc(-c2ccc(NC(=O)C(C)(C)Oc3ccccc3F)cc2)cc1` [Example 103, 2-(2-fluorophenoxy)-N-(4′-(methoxymethyl)-[1,1′-biphenyl]-4-yl)-2-methylpropanamide], 1 to 5 µM.

Turning to `CC(C)(Oc1ccc(F)cc1)C(=O)Nc1ccc(-c2ccc(S(C)(=O)=O)cc2)cc1` [Example 52, 2-(4-fluorophenoxy)-2-methyl-N-(4′-(methylsulfonyl)-[1,1′-biphenyl]-4-yl)propenamide], the EC50 is over 5 µM. To `Cc1ncc(-c2ccc(NC(=O)C(C)(C)Oc3ccc(F)cc3)cc2)cn1` [Example 24, 2-(4-fluorophenoxy)-2-methyl-N-(4-(2-methylpyrimidin-5-yl)phenyl)propenamide] belongs over 5 µM; to `CCCN(C(=O)C(C)(C)Oc1ccc(F)cc1)c1ccc(-c2ccc(C)cc2)cc1` [Example 20, 2-(4-fluorophenoxy)-2-methyl-N-(4′-methyl-[1,1′-biphenyl]-4-yl)-N-propylpropanamide], over 5 µM. To `CC(c1ccc(-c2ccc(NC(=O)C(C)(C)Oc3ccc(F)cc3)cc2)cc1)N1CCOCC1` (stereo not shown) [Example 47, 2-(4-fluorophenoxy)-2-methyl-N-(4′-(1-morpholinoethyl)-[1,1′-biphenyl]-4-yl)propanamide] belongs 1 to 5 µM; to `COCc1ccc(-c2ccc(N(CCC#N)C(=O)C(C)(C)Oc3ccc(F)cc3)cc2)cc1` [Example 139, N-(2-cyanoethyl)-2-(4-fluorophenoxy)-N-(4′-(methoxymethyl)-[1,1′-biphenyl]-4-yl)-2-methylpropanamide], over 5 µM.

As to `CC(C)Oc1ccc(-c2ccc(NC(=O)C3CC3c3ccccn3)cc2)cc1` (racemic) [Example 90, (rac-trans)-N-(4′-isopropoxy-[1,1′-biphenyl]-4-yl)-2-(pyridin-2-yl)cyclopropane-1-carboxamide], the concentration giving a half-maximal response (EC50) is 1 to 5 µM.

As for `O=C(Nc1ccc(-c2ccc(CN3CCOCC3)cc2)cc1)C1(Oc2ccc(F)cc2)CC1` [Example 129, 1-(4-fluorophenoxy)-N-(4′-(morpholinomethyl)-[1,1′-biphenyl]-4-yl)cyclo propane-1-carboxamide], the EC50 is under 1 µM. With `COCc1ccc(-c2ccc(N(C[C@@H](O)[C@@H](C)OC)C(=O)C3CC3c3ccccn3)cc2)cc1` (mixture of isomers) [Example 5, (rac-trans)-N-((2R,3R)-2-hydroxy-3-methoxybutyl)-N-(4′-methoxymethyl)-[1,1′-biphenyl]-4-yl)-2-(pyridin-2-yl)cyclopropane-1-carboxamide], the EC50 is over 5 µM. For `COCc1ccc(-c2ccc(N(C)C(=O)C(C)(C)Oc3ccc(F)cc3)cc2)c(F)c1` [Example 115, N-(2′-fluoro-4-(methoxymethyl)-[1,1′-biphenyl]-4-yl)-2-(4-fluorophenoxy)-N,2-dimethylpropanamide], the 50% effective concentration (EC50) was under 1 µM. To `CN(C)c1ncc(-c2ccc(NC(=O)C(C)(C)Oc3ccc(C#N)cc3)cc2)cn1` [Example 117, 2-(4-cyanophenoxy)-N-(4-(2-(dimethylamino)pyrimidin-5-yl)phenyl)-2-methylpropanamide] belongs 1 to 5 µM; to `COCc1ccc(-c2ccc3c(c2)CCCN3C(=O)C2CC2c2ccccn2)cc1` (racemic) [Example 43, (6-(4-(methoxymethyl)phenyl)-3,4-dihydroquinolin-1(2H)-yl)((rac-trans)-2-(pyridin-2-yl)cyclopropyl)methanone], over 5 µM. For `CC(C)(Oc1ccc(C#N)cc1)C(=O)Nc1ccc(-c2ccc(CN3CCOCC3)cc2)cc1` [Example 124, 2-(4-cyanophenoxy)-2-methyl-N-(4′-(morpholinomethyl)-[1,1′-biphenyl]-4-yl)propenamide], the EC50 was under 1 µM. To `COCc1ccc(-c2ccc(NC(=O)C3CC3c3ccc(F)cc3)cc2)cc1` (racemic) [Example 54, (rac-trans)-2-(4-fluorophenyl)-N-(4′-(methoxymethyl)-[1,1′-biphenyl]-4-yl)cyclopropane-1-carboxamide] belongs over 5 µM. Under `CC(C)Oc1ccc(-c2ccc(NC(=O)C3CC3c3ccccn3)cc2)cn1` (single isomer, unassigned) [Example 133, N-(4-(6-isopropoxypyridin-3-yl)phenyl)-2-(pyridin-2-yl)cyclopropane-1-carboxamide] stands 1 to 5 µM. Under `COCc1ccc(-c2ccc(NC(=O)C(C)(C)Oc3ccc(Cl)cc3Cl)cc2)cc1` [Example 96, 2-(2,4-dichlorophenoxy)-N-(4′-(methoxymethyl)-[1,1′-biphenyl]-4-yl)-2-methylpropanamide] stands over 5 µM; under `COCc1ccc(-c2ccc(NC(=O)C(C)(C)Oc3ccccc3C)cc2)cc1` [Example 64, N-(4′-(methoxymethyl)-[1,1′-biphenyl]-4-yl)-2-methyl-2-(o-tolylox)propenamide], under 1 µM; under `COCc1ccc(-c2ccc(NC(=O)C(C)(C)Oc3ccc(F)cc3)nc2)cc1` [Example 40, 2-(4-fluorophenoxy)-N-(5-(4-(methoxymethyl)phenyl)pyridin-2-yl)-2-methylpropanamide], 1 to 5 µM. `CCCCN(C(=O)C(C)(C)Oc1ccc(F)cc1)c1ccc(-c2ccc(COC)cc2)cc1` [Example 28, N-butyl-2-(4-fluorophenoxy)-N-(4′-(methoxymethyl)-[1,1′-biphenyl]-4-yl)-2-methylpropanamide]: the half-maximal effective concentration (EC50) is under 1 µM. To `COCc1ccc(-c2ccc(NC(=O)C(C)(C)Cc3ccccc3)cc2)cc1` [Example 56, N-(4′-(methoxymethyl)-[1,1′-biphenyl]-4-yl)-2,2-dimethyl-3-phenylpropanamide] belongs 1 to 5 µM; to `CN(C)c1ncc(-c2ccc(NC(=O)C3(Oc4ccc(F)cc4)CC3)cc2)cn1` [Example 107, N-(4-(2-(dimethylamino)pyrimidin-5-yl)phenyl)-1-(4-fluorophenoxy)cyclopropane-1-carboxamide], 1 to 5 µM; to `COCc1ccc(-c2ccc(NC(=O)C(C)(C)Oc3ccc(Cl)c(C)c3)cc2)cc1` [Example 97, 2-(4-chloro-3-methylphenoxy)-N-(4′-(methoxymethyl)-[1,1′-biphenyl]-4-yl)-2-methylpropanamide], 1 to 5 µM. For `COCc1ccc(-c2ccc(N(CC3CC3)C(=O)C(C)(C)Oc3ccc(F)cc3)cc2)cc1` [Example 29, N-(cyclopropylmethyl)-2-(4-fluorophenoxy)-N-(4′-(methoxymethyl)-[1,1′-biphenyl]-4-yl)-2-methylpropanamide], the EC50 fell in the range of 1 to 5 µM.

For the compound `COCc1ccc(-c2ccc(NC(=O)C3CC3c3ccccc3)cc2)cc1` (racemic) [Example 61, (rac-trans)-N-(4′-(methoxymethyl)-[1,1′-biphenyl]-4-yl)-2-phenylcyclopropane-1-carboxamide], the EC50 was over 5 µM.

Consider `CCOc1ccc(-c2ccc(NC(=O)C3(Oc4ccc(F)cc4)CC3)cc2)cn1` [Example 106, N-(4-(6-ethoxypyridin-3-yl)phenyl)-1-(4-fluorophenoxy)cyclopropane-1-carboxamide], for which the EC50 lay in the range of 1 to 5 µM.

With `COCc1ccc(-c2ccc(NC(=O)C(C)Oc3ccc(F)cc3)cc2)cc1` (stereo not shown) [Example 6], the EC50 was over 5 µM.

The values are drawn from patent publication US20240132450A1, “MODULATORS OF G PROTEIN-COUPLED RECEPTOR 88” (ACADIA Pharmaceuticals Inc., priority 2020, published 2024).
